Experimental data as given in publication PMC6804243, “Small-Molecule Inhibition of UBE2T/FANCL-Mediated Ubiquitylation in the Fanconi Anemia Pathway” (ACS Chemical Biology, 2019).

System: pS345 CHK1, γH2AX, pS824 KAP1, PARP1
Test: Immunoblot of DNA damage biomarkers (pS345 CHK1, γH2AX, pS824 KAP1, PARP1 cleavage) in U2OS cells
Type: cell-based
Conditions: 8 h, CU1 200 μM or CU2 500 μM; for levels of pS824 KAP1 / levels of pS345 CHK1: HU 2.5 mM; for levels of pS345 CHK1: relative to DMSO control; for levels of γH2AX (immunoblot): in combination with HU 2.5 mM, relative to HU plus DMSO
Description: As DNA damage induced by HU is cell-cycle-dependent, it was necessary to establish whether CU1 and CU2 might simply prevent cells from entering the S-phase, which would also manifest itself as a reduction in mUb-FANCD2. This was determined by analysis of several biomarkers linked to DNA damage in cycling cells. Activated CHK1 (pS345 CHK1) phosphorylates CDC25A, inducing the transient arrest of cells in the S-phase, or in G2 before the onset of mitosis.[18] […] These observations were also confirmed by cell cycle analysis.
Following the generation of DNA DSBs, ATM, ATR, and/or DNA-PKcs mediated phosphorylation of histone H2AX generates the phosphorylated species, γH2AX.[19] […] Following HU treatment, DSBs are formed if stalled replication forks are not stabilized and subsequently collapse. Therefore, we concluded that CU1 and CU2 appeared to act by impairing the ability of cells to stabilize and repair stalled replication forks. This is consistent with CU1 and CU2 inhibiting the formation of mUb-FANCD2, which would otherwise play a role in stabilizing stalled replication forks, thus preventing their collapse and the formation of DSBs.
In response to DSB formation, the transcriptional repressor and RING finger protein, KAP1, is released from chromatin, following its ATM-mediated phosphorylation on Ser824.[20] […] An increase in the number of DSBs could also have been caused by apoptosis. In cells undergoing apoptosis, PARP1 is cleaved from a full-length 116 kDa protein into 89 and 24 kDa polypeptides by caspase-3.[21]
Reaction mixtures were incubated for the indicated time at 37 °C and stopped by the addition of 2X reducing SDS -PAGE sample buffer, separated on NuPAGE Novex 4 –12% Bis/Tris gradient gels (Invitrogen) and visualized by Western blotting using the indicated antibodies (Table S3).
Cell culture. U2OS cells were cultured at 37 °C in a humidified atmosphere and 5% (v/v) CO2 in Dulbecco's Modified Eagle Medium (DMEM; Sigma-Aldrich) supplemented with 10% (v/v) fetal bovine serum (FBS), 100 units/ml of penicillin, […] of streptomycin and 292 μg/mL L-glutamine.
Cell extract preparation and immunoblotting. U2OS cells were lysed in buffer containing 50 mM Tris-HCl pH 7.5, 2% SDS, 10 mM NEM, cocktail protease inhibitor (Roche) and phosphatase inhibitor cocktail followed by sonication 100 µg of extracts were boiled for 5 mins at 95 °C in 5X loading buffer and loaded onto NuPAGE Novex 4–12% Bis/Tris gradient gels
(Invitrogen), or NuPAGE Novex 3-8% Tris/Acetate gradient gels (Invitrogen) for detection of mUb-FANCD2. After separation the gels were transferred to PVDF and the membranes were blocked with Tris-buffered saline containing 0.1% (v/v) Tween-20 (TBST) and 5% (v/v) bovine serum albumin (BSA) and incubated with the indicated primary and secondary antibodies. mUb-FANCD2 intensity was quantified using Image Studio (LI-COR).
IncuCyte cell proliferation assays. 2000 U2OS cells were seeded per well in 96-well plates and treated with compounds 24 hours afterwards. After 1 hour of compound treatment, 15 µM carboplatin (Sigma-Aldrich) was added and the cells were cultured in an incubator with an IncuCyte microscopy -platform (Essen BioScience). Phase -contrast images were acquired every 6 hours for 8 days until DMSO-carboplatin treated cells reached >80% confluence. Cell proliferation was monitored as the occupied area (% confluence) of cell images over time and calculated as percentage confluence over time. Cell confluency percentages were calculated using the integrated Cell Player software and results were analysed with Prism 6 (GraphPad Software).

SMILES | levels of pS824 KAP1 | levels of pS345 CHK1 | levels of γH2AX (immunoblot)
NCCN1C(=O)CC[C@H]2CN(Cc3cccc(-c4ccco4)c3)CC[C@H]21 [CU1] | increased levels of pS824 KAP1 | Comparable levels of pS345 CHK1 | somewhat increased the levels of γH2AX
CCN1CCN(c2cc(C)nc3nc(CN4CCCCC4C)nn23)CC1 (stereo not drawn) [CU2] | increased levels of pS824 KAP1 | Comparable levels of pS345 CHK1 | somewhat increased the levels of γH2AX
